“And” between values parts separate entries of the source, which are not always exact repeats. Identical values can stand only once.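 48-hour exposure; five concentrations; linearly interpolated endpoints. GI50 is the concentration that inhibits growth by half.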 The source made the active and inactive calls. Cut-off read from the data, not from the text of the source: active = GI50 up to about 1.1 µM and inactive = higher.
Tests used:
Test in all cases: growth of human tumour cells (NCI), 48 h
NCI-H522 = system: NCI-H522
ACHN = system: ACHN
HCT-116 = system: HCT-116
SK-OV-3 = system: SK-OV-3
DMS-114 = system: DMS-114
SK-MEL-2 = system: SK-MEL-2
EKVX = system: EKVX
SF-295 = system: SF-295
MOLT-4 = system: MOLT-4
NCI-H226 = system: NCI-H226
TK-10 = system: TK-10
A498 = system: A498
DMS-273 = system: DMS-273
CAKI-1 = system: CAKI-1
IGROV-1 = system: IGROV-1
LXFL 529 = system: LXFL 529
OVCAR-4 = system: OVCAR-4
SK-MEL-28 = system: SK-MEL-28
OVCAR-3 = system: OVCAR-3
RPMI-8226 = system: RPMI-8226
M19-MEL = system: M19-MEL
NCI-H460 = system: NCI-H460
XF498 = system: XF498
SNB-78 = system: SNB-78
OVCAR-5 = system: OVCAR-5
HCC 2998 = system: HCC 2998
SW-620 = system: SW-620
HL-60 = system: HL-60
HT-29 = system: HT-29
UACC-257 = system: UACC-257
RXF 393 = system: RXF 393
A549 = system: A549
MCF7 = system: MCF7
UO-31 = system: UO-31
SF-539 = system: SF-539
COLO 205 = system: COLO 205
KM-20L2 = system: KM-20L2
HCT-15 = system: HCT-15
SN12C = system: SN12C
CCRF-CEM = system: CCRF-CEM
NCI-H23 = system: NCI-H23
DLD-1 = system: DLD-1
OVCAR-8 = system: OVCAR-8
SK-MEL-5 = system: SK-MEL-5
K562 = system: K562
HOP-18 = system: HOP-18
U-251 = system: U-251
HOP-62 = system: HOP-62
SF-268 = system: SF-268
LOX IMVI = system: LOX IMVI
UACC-62 = system: UACC-62
KM12 = system: KM12
SNB-75 = system: SNB-75
HOP-92 = system: HOP-92
SNB-19 = system: SNB-19
Malme-3M = system: Malme-3M
NCI/ADR-RES = system: NCI/ADR-RES
M14 = system: M14
SR = system: SR

CC(=O)OCC1OC(n2c(-c3ccccc3)cc(-c3ccco3)c(C#N)c2=O)C(OC(C)=O)C(OC(C)=O)C1OC(C)=O (configuration not stated)
GI50 (NCI-H522): 29.5 µM (inactive) and 20.7 µM (inactive)
GI50 (ACHN): 76.7 µM (inactive) and 49.7 µM (inactive)
GI50 (HCT-116): 7.46 µM (inactive) and 5.86 µM (inactive)
GI50 (SK-OV-3): > 100 µM (inactive) and 98.6 µM (inactive)
GI50 (DMS-114): 28.8 µM (inactive) and 30.5 µM (inactive)
GI50 (SK-MEL-2): 14.6 µM (inactive) and 28.1 µM (inactive)
GI50 (EKVX): > 100 µM (inactive)
GI50 (SF-295): 39.9 µM (inactive) and 57.5 µM (inactive)
GI50 (MOLT-4): > 22.8 µM (inactive) and 14.8 µM (inactive)
GI50 (NCI-H226): > 100 µM (inactive)
GI50 (TK-10): > 31.6 µM (inactive) and 27.2 µM (inactive)
GI50 (A498): > 100 µM (inactive) and 68.1 µM (inactive)
GI50 (DMS-273): 25.8 µM (inactive) and 36.3 µM (inactive)
GI50 (CAKI-1): 52.5 µM (inactive)
GI50 (IGROV-1): > 31.6 µM (inactive) and 36.8 µM (inactive)
GI50 (LXFL 529): 12.7 µM (inactive) and > 10 µM (inactive)
GI50 (OVCAR-4): > 56.6 µM (inactive) and 74.3 µM (inactive)
GI50 (SK-MEL-28): 22.3 µM (inactive) and 39.3 µM (inactive)
GI50 (OVCAR-3): 33.3 µM (inactive) and > 31.6 µM (inactive)
GI50 (RPMI-8226): 8.38 µM (inactive)
GI50 (M19-MEL): 54.6 µM (inactive) and 30.9 µM (inactive)
GI50 (NCI-H460): 57.4 µM (inactive)
GI50 (XF498): 16.2 µM (inactive)
GI50 (SNB-78): 45.7 µM (inactive) and 25.9 µM (inactive)
GI50 (OVCAR-5): > 100 µM (inactive)
GI50 (HCC 2998): > 100 µM (inactive) and 52.4 µM (inactive)
GI50 (SW-620): > 31.6 µM (inactive) and 49.3 µM (inactive)
GI50 (HL-60): 3.84 µM (inactive)
GI50 (HT-29): > 100 µM (inactive)
GI50 (UACC-257): > 89.1 µM (inactive) and 75.7 µM (inactive)
GI50 (RXF 393): > 32.1 µM (inactive) and 19.3 µM (inactive)

O=NN1C(c2ccccc2)CNC(=O)CC1c1ccccc1 (configuration not stated)
GI50 (NCI-H522): 20.3 µM (inactive)
GI50 (A549): 44.5 µM (inactive)
GI50 (MCF7): 24.9 µM (inactive)
GI50 (HCT-116): 38.5 µM (inactive)
GI50 (UO-31): 36.3 µM (inactive)
GI50 (SK-OV-3): 42 µM (inactive)
GI50 (DMS-114): 22.7 µM (inactive)
GI50 (SF-539): 35.4 µM (inactive)
GI50 (SK-MEL-2): 33.7 µM (inactive)
GI50 (EKVX): 35.4 µM (inactive)
GI50 (COLO 205): 25.8 µM (inactive)
GI50 (KM-20L2): 25.3 µM (inactive)
GI50 (SF-295): 32.7 µM (inactive)
GI50 (MOLT-4): 52.7 µM (inactive)
GI50 (NCI-H226): 68.5 µM (inactive)
GI50 (HCT-15): 36 µM
GI50 (SN12C): 53 µM (inactive)
GI50 (CCRF-CEM): 35.3 µM (inactive)
GI50 (NCI-H23): 33.1 µM (inactive)
GI50 (A498): 35.6 µM (inactive)
GI50 (DLD-1): 44.2 µM (inactive)
GI50 (DMS-273): 27.4 µM (inactive)
GI50 (CAKI-1): 59.6 µM (inactive)
GI50 (OVCAR-8): 65.5 µM (inactive)
GI50 (IGROV-1): 63.5 µM (inactive)
GI50 (OVCAR-4): 52.8 µM (inactive)
GI50 (SK-MEL-5): 25.3 µM (inactive)
GI50 (K562): 22.6 µM (inactive)
GI50 (SK-MEL-28): 57.3 µM (inactive)
GI50 (HOP-18): > 100 µM (inactive)
GI50 (OVCAR-3): 22.8 µM (inactive)
GI50 (U-251): 55.3 µM (inactive)
GI50 (RPMI-8226): 34 µM (inactive)
GI50 (M19-MEL): 50.1 µM (inactive)
GI50 (NCI-H460): 36.2 µM (inactive)
GI50 (SNB-78): > 91.4 µM (inactive)
GI50 (HOP-62): 37.6 µM (inactive)
GI50 (OVCAR-5): > 100 µM (inactive)
GI50 (HCC 2998): 27.3 µM (inactive)
GI50 (SF-268): 78.5 µM (inactive)
GI50 (SW-620): 38.1 µM (inactive)
GI50 (HL-60): 21.9 µM (inactive)
GI50 (LOX IMVI): 46.7 µM (inactive)
GI50 (UACC-62): 44.4 µM (inactive)
GI50 (KM12): 42.9 µM (inactive)
GI50 (HT-29): 28.6 µM (inactive)
GI50 (SNB-75): 20.8 µM (inactive)
GI50 (UACC-257): 36.4 µM (inactive)
GI50 (HOP-92): 42.8 µM (inactive)
GI50 (RXF 393): 22.2 µM (inactive)
GI50 (SNB-19): 48.5 µM (inactive)
GI50 (Malme-3M): 50.9 µM (inactive)
GI50 (NCI/ADR-RES): 28.7 µM (inactive)

O=C1CSC(C(/N=N/c2ccc(Cl)cc2)c2nc3ccccc3[nH]2)=N1 (configuration not stated)
GI50 (NCI-H522): 25.9 µM (inactive)
GI50 (ACHN): 28.7 µM (inactive)
GI50 (A549): > 100 µM (inactive)
GI50 (HCT-116): > 100 µM (inactive)
GI50 (UO-31): 39.1 µM (inactive)
GI50 (SK-OV-3): 55 µM (inactive)
GI50 (DMS-114): 26.2 µM (inactive)
GI50 (SF-539): 23.4 µM (inactive)
GI50 (SK-MEL-2): 16 µM (inactive)
GI50 (EKVX): 91.2 µM (inactive)
GI50 (COLO 205): > 100 µM (inactive)
GI50 (KM-20L2): > 100 µM (inactive)
GI50 (SF-295): 38.8 µM (inactive)
GI50 (MOLT-4): 6.79 µM (inactive)
GI50 (NCI-H226): 0.0105 µM (active)
GI50 (HCT-15): > 100 µM
GI50 (SN12C): > 100 µM (inactive)
GI50 (CCRF-CEM): 10.7 µM (inactive)
GI50 (NCI-H23): 63 µM (inactive)
GI50 (TK-10): > 100 µM (inactive)
GI50 (A498): > 100 µM (inactive)
GI50 (DLD-1): 65.5 µM (inactive)
GI50 (DMS-273): 60.4 µM (inactive)
GI50 (CAKI-1): > 100 µM (inactive)
GI50 (OVCAR-8): 82.8 µM (inactive)
GI50 (LXFL 529): 52.6 µM (inactive)
GI50 (OVCAR-4): > 100 µM (inactive)
GI50 (SK-MEL-5): 25.6 µM (inactive)
GI50 (K562): 61.8 µM (inactive)
GI50 (SK-MEL-28): 35.5 µM (inactive)
GI50 (OVCAR-3): 36.9 µM (inactive)
GI50 (U-251): 53.3 µM (inactive)
GI50 (RPMI-8226): > 100 µM (inactive)
GI50 (M19-MEL): 85.7 µM (inactive)
GI50 (NCI-H460): 33 µM (inactive)
GI50 (XF498): 17.8 µM (inactive)
GI50 (HOP-62): 35.2 µM (inactive)
GI50 (OVCAR-5): > 100 µM (inactive)
GI50 (HCC 2998): 25.6 µM (inactive)
GI50 (SF-268): > 100 µM (inactive)
GI50 (M14): > 100 µM (inactive)
GI50 (SW-620): > 100 µM (inactive)
GI50 (HL-60): 51.6 µM (inactive)
GI50 (UACC-62): > 100 µM (inactive)
GI50 (KM12): 45.8 µM (inactive)
GI50 (HT-29): > 100 µM (inactive)
GI50 (SNB-75): 25.6 µM (inactive)
GI50 (SR): 76.4 µM (inactive)
GI50 (UACC-257): > 100 µM (inactive)
GI50 (HOP-92): 54 µM (inactive)
GI50 (SNB-19): 50.6 µM (inactive)
GI50 (Malme-3M): > 100 µM (inactive)

COc1ccc(C[C@H](N)C(=O)N2C[C@H](CO)C[C@H](n3cnc4c(N(C)C)ncnc43)C2)cc1
GI50 (NCI-H522): > 100 µM (inactive)
GI50 (ACHN): > 100 µM (inactive)
GI50 (A549): > 100 µM (inactive)
GI50 (HCT-116): > 100 µM (inactive)
GI50 (UO-31): > 100 µM (inactive)
GI50 (SK-OV-3): > 100 µM (inactive)
GI50 (DMS-114): > 100 µM (inactive)
GI50 (SF-539): > 100 µM (inactive)
GI50 (SK-MEL-2): > 100 µM (inactive)
GI50 (EKVX): > 100 µM (inactive)
GI50 (COLO 205): > 100 µM (inactive)
GI50 (KM-20L2): > 100 µM (inactive)
GI50 (MOLT-4): > 100 µM (inactive)
GI50 (NCI-H226): > 100 µM (inactive)
GI50 (HCT-15): > 100 µM
GI50 (SN12C): > 100 µM (inactive)
GI50 (CCRF-CEM): > 100 µM (inactive)
GI50 (NCI-H23): > 100 µM (inactive)
GI50 (TK-10): > 100 µM (inactive)
GI50 (DLD-1): > 100 µM (inactive)
GI50 (DMS-273): > 100 µM (inactive)
GI50 (CAKI-1): > 100 µM (inactive)
GI50 (OVCAR-8): > 100 µM (inactive)
GI50 (IGROV-1): > 100 µM (inactive)
GI50 (LXFL 529): > 100 µM (inactive)
GI50 (OVCAR-4): > 100 µM (inactive)
GI50 (SK-MEL-5): > 100 µM (inactive)
GI50 (K562): > 100 µM (inactive)
GI50 (SK-MEL-28): > 100 µM (inactive)
GI50 (HOP-18): 45.7 µM (inactive)
GI50 (OVCAR-3): > 100 µM (inactive)
GI50 (U-251): > 100 µM (inactive)
GI50 (RPMI-8226): > 100 µM (inactive)
GI50 (M19-MEL): > 100 µM (inactive)
GI50 (NCI-H460): > 100 µM (inactive)
GI50 (HOP-62): > 100 µM (inactive)
GI50 (OVCAR-5): > 100 µM (inactive)
GI50 (HCC 2998): > 100 µM (inactive)
GI50 (SF-268): > 100 µM (inactive)
GI50 (M14): > 100 µM (inactive)
GI50 (SW-620): > 100 µM (inactive)
GI50 (HL-60): 73.5 µM (inactive)
GI50 (LOX IMVI): > 100 µM (inactive)
GI50 (UACC-62): > 100 µM (inactive)
GI50 (KM12): > 100 µM (inactive)
GI50 (HT-29): > 100 µM (inactive)
GI50 (SR): > 100 µM (inactive)
GI50 (HOP-92): 57 µM (inactive)
GI50 (RXF 393): > 100 µM (inactive)
GI50 (SNB-19): > 100 µM (inactive)
GI50 (Malme-3M): > 100 µM (inactive)

Reference: ChEMBL document CHEMBL1201862, “PubChem BioAssay data set” (2004)
